{
  "source": "patent US9096615B2",
  "about": "“Bridged bicyclic amino thiazine dioxide compounds as inhibitors of beta-secretase and methods of use thereof” (AMGEN INC., priority 2013, dated 2015)",
  "key": {"Cathepsin D (Cat D)": {"molecular_target": "T1, Cathepsin D (Cat D) (Homo sapiens, UniProt P07339)", "T1 construct": "made in house; host or cells: CHO cells", "T1 sequence (P07339 65-412, species assumed)": "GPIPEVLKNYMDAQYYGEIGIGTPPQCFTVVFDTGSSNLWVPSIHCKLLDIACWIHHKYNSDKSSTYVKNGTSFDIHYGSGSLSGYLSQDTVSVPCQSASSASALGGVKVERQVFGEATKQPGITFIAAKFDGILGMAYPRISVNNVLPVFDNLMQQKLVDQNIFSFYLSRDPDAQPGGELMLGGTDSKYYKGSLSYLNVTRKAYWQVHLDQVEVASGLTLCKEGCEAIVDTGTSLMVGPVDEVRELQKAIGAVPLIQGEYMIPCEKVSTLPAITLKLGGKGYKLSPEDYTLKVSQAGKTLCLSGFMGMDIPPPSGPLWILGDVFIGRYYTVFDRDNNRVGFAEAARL", "experiment": "In vitro enzymatic Cathepsin D (Cat D) FRET assay", "format": "biochemical", "settings": "average IC50; first procedure; read-out: CatD IC50", "method_in_brief": "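Recombinant human Cat D expressed in CHO cells, 9 nM, pre-incubated 1 h with inhibitor in 0.05 M citrate pH 3.5, 10% DMSO, 5 mM CHAPS. Reaction started with 20 nM FRET peptide substrate, run 1 h, stopped with Tris to neutral pH; fluorescence read at ex 500/em 580 nm.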"}, "Abeta 40": {"test_system": "Abeta 40", "experiment": "In vivo inhibition of beta-secretase: percent Abeta 40 reduction in CSF and brain", "set-up": "species or system rat", "settings": "10 mpk, after 4 hrs", "method_in_brief": "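Test compound was given by oral gavage in 2% HPMC, 1% Tween80, pH 2.2 (e.g., 30 mg/kg to male Sprague Dawley rats), or IV in 5% EtOH/45% propylene glycol in 5% dextrose. Four hours later, Abeta40 in CSF and in brain homogenate (DEA or Triton extraction) was measured by ECL sandwich ELISA (4G8 capture, Fab40 detection). Reduction is expressed relative to vehicle-treated animals.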"}, "[1]": {"settings": "Abeta 40, rat CSF, read-out: % reduction of rat CSF levels at 10 pmk"}, "[2]": {"settings": "Abeta 40, rat brain, read-out: % reduction of rat brain levels at 10 mpk"}},
  "note": "Like-named read-outs stand apart in the source and are kept apart here.",
  "data": [
    {"smiles": "Cc1cc(OC(F)F)cnc1C(=O)Nc1ccc(F)c([C@@]2(C)N=C(N)[C@@]3(CF)CC[C@@H]2S3(=O)=O)c1", "note": "[Example 102, N-(3-((1S,2R,5R)-4-amino-5-(fluoromethyl)-2-methyl-8,8-dioxido-8-thia-3-azabicyclo[3.2.1]oct-3-en-2-yl)-4-fluorophenyl)-5-(difluoromethoxy)-3-methyl-2-pyridinecarboxamide]", "values": [
      {"measurement": "IC50", "setting": "Cathepsin D (Cat D)", "value": 451, "unit": "µM"},
      {"measurement": "inhibition in vivo at 10 mg/kg", "setting": "Abeta 40; [1]", "value": 67, "unit": "%"},
      {"measurement": "inhibition in vivo at 10 mg/kg", "setting": "Abeta 40; [2]", "value": 68, "unit": "%"}
    ]},
    {"smiles": "C[C@]1(c2cc(Nc3nccc4nc(OCc5ncco5)cnc34)ccc2F)N=C(N)[C@@]2(CF)CC[C@@H]1S2(=O)=O", "note": "[Example 104, N-(3-((1S,2R,5R)-4-amino-5-(fluoromethyl)-2-methyl-8,8-dioxido-8-thia-3-azabicyclo[3.2.1]oct-3-en-2-yl)-4-fluorophenyl)-2-(1,3-oxazol-2-ylmethoxy)pyrido[3,4-b]pyrazin-5-amine]", "values": [
      {"measurement": "IC50", "setting": "Cathepsin D (Cat D)", "value": 799, "unit": "µM"},
      {"measurement": "inhibition in vivo at 10 mg/kg", "setting": "Abeta 40; [1]", "value": 74, "unit": "%"},
      {"measurement": "inhibition in vivo at 10 mg/kg", "setting": "Abeta 40; [2]", "value": 71, "unit": "%"}
    ]},
    {"smiles": "C[C@]1(c2cc(Nc3ncnc4cc(C(F)(F)F)cnc34)ccc2F)N=C(N)[C@@]2(C)CC[C@@H]1S2(=O)=O", "note": "[Example 106, N-(3-((1S,2R,5R)-4-amino-2,5-dimethyl-8,8-dioxido-8-thia-3-azabicyclo[3.2.1]oct-3-en-2-yl)-4-fluorophenyl)-7-(trifluoromethyl)pyrido[3,2-d]pyrimidin-4-amine]", "values": [
      {"measurement": "IC50", "setting": "Cathepsin D (Cat D)", "value": 317, "unit": "µM"},
      {"measurement": "inhibition in vivo at 10 mg/kg", "setting": "Abeta 40; [1]", "value": 59, "unit": "%"},
      {"measurement": "inhibition in vivo at 10 mg/kg", "setting": "Abeta 40; [2]", "value": 29, "unit": "%"}
    ]},
    {"smiles": "COc1cnc2c(Nc3ccc(F)c([C@@]4(C)N=C(N)[C@@]5(C)CC[C@@H]4S5(=O)=O)c3)ncnc2c1", "note": "[Example 132, N-(3-((1S,2R,5R)-4-amino-2,5-dimethyl-8,8-dioxido-8-thia-3-azabicyclo[3.2.1]oct-3-en-2-yl)-4-fluorophenyl)-7-methoxypyrido[3,2-d]pyrimidin-4-amine]", "values": [
      {"measurement": "IC50", "setting": "Cathepsin D (Cat D)", "value": 965, "unit": "µM"},
      {"measurement": "inhibition in vivo at 10 mg/kg", "setting": "Abeta 40; [1]", "value": 70, "unit": "%"},
      {"measurement": "inhibition in vivo at 10 mg/kg", "setting": "Abeta 40; [2]", "value": 50, "unit": "%"}
    ]},
    {"smiles": "C[C@]1(c2cc(Nc3nccc4nc(OCc5ncco5)cnc34)ccc2F)N=C(N)[C@@]2(C)CC[C@@H]1S2(=O)=O", "note": "[Example 140, N-(3-((1S,2R,5R)-4-amino-2,5-dimethyl-8,8-dioxido-8-thia-3-azabicyclo[3.2.1]oct-3-en-2-yl)-4-fluorophenyl)-2-(1,3-oxazol-2-ylmethoxy)pyrido[3,4-b]pyrazin-5-amine]", "values": [
      {"measurement": "IC50", "setting": "Cathepsin D (Cat D)", "value": 855, "unit": "µM"},
      {"measurement": "inhibition in vivo at 10 mg/kg", "setting": "Abeta 40; [1]", "value": 41, "unit": "%"},
      {"measurement": "inhibition in vivo at 10 mg/kg", "setting": "Abeta 40; [2]", "value": 39, "unit": "%"}
    ]}
  ]
}
